The values that follow come from ChEMBL document CHEMBL1135851, “Synthesis and biological evaluation of pyridine-modified analogues of 3-(2-aminoethoxy)pyridine as novel nicotinic receptor ligands” (Bioorg Med Chem Lett, 2002).

One may read the Ki as a dissociation constant, usually derived from enzyme kinetics or from competition with a known ligand. Low values mean higher affinity, high ones lower affinity.

Molecular target in one experiment: not listed separately
As to the kind of experiment: Ability to displace radioligand [3H](-)-cytisine from Neuronal nicotinic receptor in rat brain membrane was determined. Format: cell membranes.
On to `Clc1ccc(OC[C@H]2CCN2)cn1` [TEBANICLINE], for which the affinity, expressed as Ki, was 0.05 nM.

The target of the next experiment is Neuronal acetylcholine receptor. As to the kind of experiment: Ability to displace radioligand [3H](-)-cytisine from Nicotinic acetylcholine receptor in rat brain membrane. Format: cell membranes.
`CNCCOc1cncc(N)c1` displayed a Ki of 27 nM. Turning to `CN[C@H](C)COc1cnc(Cl)c(/C=C/c2ccncc2)c1`, the Ki was 0.077 nM. This Ki lies about 350-fold lower than the previous one.

On to `CN(C)CCOc1cnc(Cl)c(Br)c1`, for which affinity was put at a Ki of 7.1 nM. As to `C[C@H](COc1cnc(Cl)c(/C=C/c2ccncc2)c1)N(C)C`, the Ki turned out to be 0.1 nM. This Ki lies about 71-fold lower than the previous one.

The compound `Cc1cc(OC[C@@H](C)N(C)C)cnc1Cl` showed a Ki of 7.2 nM. Same read-out and setting: the result for `Cc1ccc(OCCN(C)C)cn1` reads 140 nM.

Compound `C[C@H](COc1ccc(F)nc1)N(C)C` registered a Ki of 70 nM. Compared with the last compound, the Ki is about 2-fold lower. Take `CC[C@H](N)COc1ccc(Cl)nc1`: the Ki worked out at 15 nM.

Regarding `CN[C@H](C)COc1cnc(Cl)c(Br)c1`, the Ki was 1.5 nM.

`C[C@@H](COc1ccc(F)nc1)N(C)C`: the Ki came to 100 nM. In turn, `Cc1cc(OC[C@@H](C)N)cnc1Cl` gave a Ki of 0.98 nM.

Regarding `CNCCOc1cncc(Cl)c1`, affinity was put at a Ki of 37 nM. Still for that read-out and setting: the result for `C[C@H](N)COc1ccc(F)nc1` reads 8.7 nM; that for `C[C@@H](N)COc1cnc(Cl)c(Br)c1`, 1.5 nM; that for `N[C@H](COc1cnc(Cl)c(Br)c1)Cc1ccccc1`, 100 nM. In turn, `CN[C@H](C)COc1cnc(Cl)c(C)c1` registered a Ki of 0.57 nM. In turn, `C[C@H](N)COc1ccc(Cl)nc1` had a Ki of 4.5 nM. Against the preceding compound, the Ki is about 7.9-fold higher. With `CN[C@H](COc1cnc(Cl)c(/C=C/c2ccncc2)c1)Cc1ccccc1`, the Ki is 2.6 nM. Compound `CN[C@@H](C)COc1cnc(Cl)c(Br)c1` displayed a Ki of 11 nM. With `CNCCOc1cnc(Cl)c(Cl)c1`, the Ki was 13 nM.

`C[C@H](N)COc1cnc(Cl)c(/C=C/c2ccncc2)c1` displayed a Ki of 0.076 nM. Still for that read-out and setting: the result for `CN[C@H](C)COc1ccc(Cl)nc1` reads 5.9 nM; that for `CN[C@@H](C)COc1ccc(Cl)nc1`, 41 nM; that for `CN(C)CCOc1cnc(Cl)c(Cl)c1`, 16 nM. Regarding `CN(C)CCOc1cncc(Br)c1`, the Ki is 50 nM. This Ki is about 3.1-fold higher than that of the compound before. On to `CN(C)CCOc1cncc(C(F)(F)F)c1`, for which the Ki was 250 nM. This Ki lies about 5-fold higher than the previous one.

Compound `C[C@@H](COc1cnc(Cl)c(/C=C/c2ccncc2)c1)N(C)C` yielded a Ki of 0.37 nM.

For the compound `CNCCOc1cccnc1`, the affinity, expressed as Ki, was 17 nM.

Compound `C[C@H](COc1cnc(Cl)c(Br)c1)N(C)C` displayed a Ki of 12 nM. Compound `C[C@@H](N)COc1cnc(Cl)c(/C=C/c2ccncc2)c1` returned a Ki of 0.081 nM. On the same count and under the same terms, the result for `CC[C@H](N)COc1cnc(Cl)c(/C=C/c2ccncc2)c1` reads 0.18 nM; that for `CNCCOc1ccc(Cl)nc1`, 22 nM; that for `CN[C@@H](C)COc1ccc(F)nc1`, 69 nM. Regarding `C[C@@H](N)COc1ccc(F)nc1`, the Ki is 6.6 nM. Still for that read-out and setting: the result for `CN[C@H](C)COc1ccc(F)nc1` reads 11 nM. The same measure, in the same setting: the result for `C[C@@H](N)COc1ccc(Cl)nc1` reads 5.3 nM; that for `CN[C@H](COc1cnc(Cl)c(Br)c1)Cc1ccccc1`, 85 nM. For `CNCCOc1cnc(Cl)c(Br)c1`, the affinity corresponds to a Ki of 14.3 nM. In turn, `CN[C@@H](C)COc1cnc(Cl)c(C)c1` returned a Ki of 5.5 nM. `N[C@H](COc1cnc(Cl)c(/C=C/c2ccncc2)c1)Cc1ccccc1` came in with a Ki of 9.9 nM. On the same count and under the same terms, with `C[C@@H](COc1cnc(Cl)c(Br)c1)N(C)C` the figure was 31 nM; with `CN(C)[C@H](COc1cnc(Cl)c(Br)c1)Cc1ccccc1`, 320 nM. `C[C@H](N)COc1cnc(Cl)c(Br)c1` had a Ki of 1.5 nM. In turn, `CNCCOc1cncc([N+](=O)[O-])c1` registered a Ki of 560 nM. For `CN(C)CCOc1cncc([N+](=O)[O-])c1`, the Ki worked out at 260 nM. With `CNCCOc1ccc(C)nc1`, affinity was put at a Ki of 43 nM. `CN[C@H](COc1cccnc1)Cc1ccccc1`: the inhibition constant Ki stood at 690 nM. `Cc1cc(OC[C@H](C)N(C)C)cnc1Cl` gave a Ki of 9.6 nM. Against the preceding compound, the Ki is about 72-fold lower.

The compound `CC[C@H](N)COc1cnc(Cl)c(Br)c1` yielded a Ki of 15 nM. Take `CN(C)CCOc1ccc(Cl)nc1`: affinity was put at a Ki of 79 nM. The compound `CC[C@@H](COc1cnc(Cl)c(/C=C/c2ccncc2)c1)N(C)C` showed a Ki of 3.6 nM. For `CN(C)[C@@H](CCCl)COc1cncc(C(F)(F)F)c1`, the Ki was found to be 5.5 nM. With `Cc1cc(OC[C@H](C)N)cnc1Cl`, the affinity, expressed as Ki, was 0.52 nM. The compound `CN(C)[C@H](COc1cnc(Cl)c(/C=C/c2ccncc2)c1)Cc1ccccc1` gave a Ki of 4.6 nM.

The compound `CNCCOc1ccc(OC)nc1` gave a Ki of 620 nM. Against the preceding compound, the Ki is about 130-fold higher.

Consider `CC[C@@H](COc1ccc(F)nc1)NC`, for which the Ki amounted to 220 nM. In turn, `CC[C@H](N)COc1ccc(F)nc1` came in with a Ki of 39 nM. Compared with the last compound, the Ki is about 5.6-fold lower. Same read-out and setting: with `NCCOc1cncc(Cl)c1` the figure was 140 nM. Compound `CN(C)CCOc1cncc(Cl)c1` showed a Ki of 74 nM. Still for that read-out and setting: the result for `COc1ccc(OCCN(C)C)cn1` reads 406 nM.
